System: SK-OV-3 multi-cell spheroids, viability
Test: Anticancer human tumor SK-OV-3 cell line growth inhibition [IpAb];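 for viability, T/C: viability read after seven days of drug exposure; percent of DMSO vehicle control luminescence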
Conditions: for IC50: curve of first compound; for viability, T/C: stronger effect = lower value
Description: Combinatorial screen of targeted agents with ipatasertib and abemaciclib in multi-cell type tumor spheroids
A high-throughput screen of multi-cell type tumor spheroids was designed to identify active combinations of targeted small molecules and ipatasertib or abemaciclib. Complex spheroids include a stromal component modeled by human endothelial cells (HUVEC) and fibroblasts modeled by human mesenchymal stem cells (MSCs). The concentration ranges selected for each drug and investigational agent were based upon clinically achievable concentrations if the clinical Cmax of the agent was known.
Compounds. The drugs and investigational agents: ipatasertib (NSC767898), abemaciclib(NSC768073), selumetinib (NSC741078), trametinib (758246), adavosertib (NSC754352), everolimus (NSC733504), sapanisertib (NSC764658), vemurafenib (NSC761431), venetoclax (NSC766270), copanlisib (NSC809693), apelisib (NSC765974), palbociblib (NSC758247), vemurafenib (NSC761431), dabrafenib (NSC764134), ravoxertinib (NSC781343), BMS-387032 (NSC767048), sotorasib (NSC818433), talazoparib (NSC767125) and afursertib (NSC778305), were obtained from the National Cancer Institute (NCI) Developmental Therapeutics Program Chemical Repository. The FDA-approved anticancer drug set is available from the NCI Developmental Therapeutics Program. […] The stock solutions were prepared in dimethyl sulfoxide (DMSO, Sigma-Aldrich, St. Louis, MO, cat. D2650) at 800-fold the tested concentration and stored at -70 degrees C prior to their use. All drugs and investigational agents were tested over a range starting from a high concentration at or near the clinical Cmax and decreasing in half-log increments. If the clinical Cmax for an agent had not been determined, the highest concentration tested was 10 microM.
NCI60 Cell Culture. NCI60 cell lines were obtained from the NCI Developmental Therapeutics Program Tumor Repository. For each lot of cells, the Repository performed Applied Biosystems AmpFLSTR Identifiler testing with PCR amplification to confirm consistency with the published Identifier STR profile for each cell line. Cells were kept in continuous culture for no more than 20 passages. The optimal seeding densities for each of the cell lines at each time point assessed were determined prior to performing the concentration response studies. Briefly, the NCI60 human tumor lines were grown as monolayers in RPMI 1640 medium supplemented with 10% FBS and 2 mmol/L L-glutamine.
An additional 9 lines were from the NCI60 cell line panel including MDA-MB-231 breast carcinoma, MDA-MB-468 breast carcinoma, MCF7 breast carcinoma, Hs578T breast carcinoma, MALME-3M melanoma, SK-MEL-2 melanoma, SK-OV-3 ovarian carcinoma, DU-145 prostate carcinoma, PC-3 prostate carcinoma, all cell lines along with major genetic alterations are listed on Table 2. Pooled donor human umbilical vein endothelial cells (HUVEC, Lonza, cat. CC-2519) and human mesenchymal stem cells (hMSC, Lonza, cat. PT-2501) were purchased from Lonza (Walkersville, MD).
PDMR cell lines were grown in complete medium (DC medium): Dulbecco's modified Eagle's medium (DMEM)/F12 supplemented with 5% fetal bovine serum (FBS), 2 mM L-glutamine, 100 U/mL penicillin and 100 µg/ml streptomycin, 0.4 µg/ml hydrocortisone, 10 ng/ml epidermal growth factor (EGF) recombinant human protein, 24 µg/mL adenine, and 0.1 mg/mL primocin. During culture from frozen stock vials, PDMR cells were cultured in the same medium containing 10 µM Y-27632 (see Table 3). The PDCs were cultured in complete DMEM/F12 media without 10 microM Y-27632 dihydrochloride for at least two passages prior to the screen. The pooled donor HUVEC and hMSC were cultured in endothelial cell growth medium 2 (PromoCell, Heidelberg, Germany, cat. C-22011) and mesenchymal stem cell growth medium 2 (PromoCell, cat. C-28009), respectively. For all experiments, HUVEC and hMSC were used at passages </=5.
[…]

[1] = second compound 0.1 µM, first compound 0.0316 µM
[2] = second compound 0.1 µM, first compound 0.1 µM
[3] = second compound 0.1 µM, first compound 0.316 µM
[4] = second compound 0.1 µM, first compound 1 µM
[5] = second compound 0.316 µM, first compound 0.0316 µM
[6] = second compound 0.316 µM, first compound 0.1 µM
[7] = second compound 0.316 µM, first compound 0.316 µM
[8] = second compound 0.316 µM, first compound 1 µM
[9] = second compound 1 µM, first compound 0.0316 µM
[10] = second compound 1 µM, first compound 0.1 µM
[11] = second compound 1 µM, first compound 0.316 µM
[12] = second compound 1 µM, first compound 1 µM
[13] = second compound 3.16 µM, first compound 0.0316 µM
[14] = second compound 3.16 µM, first compound 0.1 µM
[15] = second compound 3.16 µM, first compound 0.316 µM
[16] = second compound 3.16 µM, first compound 1 µM
[17] = second compound 10 µM, first compound 0.0316 µM
[18] = second compound 10 µM, first compound 0.1 µM
[19] = second compound 10 µM, first compound 0.316 µM
[20] = second compound 10 µM, first compound 1 µM

Row | SMILES | IC50 (second compound 0.1 µM) | IC50 (second compound 0.316 µM) | IC50 (second compound 1 µM) | IC50 (second compound 3.16 µM) | IC50 (second compound 10 µM) | viability, T/C [1] | viability, T/C [2] | viability, T/C [3] | viability, T/C [4] | viability, T/C [5] | viability, T/C [6] | viability, T/C [7] | viability, T/C [8] | viability, T/C [9] | viability, T/C [10] | viability, T/C [11] | viability, T/C [12] | viability, T/C [13] | viability, T/C [14] | viability, T/C [15] | other results
1 | COc1c(OCCCN2CCOCC2)ccc2c3n(c(=NC(=O)c4cnc(N)nc4)nc12)CCN3 + CC(C)NCC(C(=O)N1CCN(c2ncnc3c2C(C)CC3O)CC1)c1ccc(Cl)cc1 | 3.82 nM | < 3.16 nM | < 3.16 nM | < 3.16 nM | < 3.16 nM | 12.1% | 6.59% | 5.28% | 3.75% | 9.72% | 7.09% | 5.47% | 3.33% | 8.59% | 6.92% | 4.3% | 2.76% | 8.55% | 6.85% | 4.48% | viability, T/C (second compound 0.1 µM, first compound 0.00316 µM): 53.7%; viability, T/C (second compound 0.1 µM, first compound 0.01 µM): 31.3%; viability, T/C (second compound 0.316 µM, first compound 0.00316 µM): 29.5%; viability, T/C (second compound 0.316 µM, first compound 0.01 µM): 18.4%; viability, T/C (second compound 1 µM, first compound 0.00316 µM): 17.3%; viability, T/C (second compound 1 µM, first compound 0.01 µM): 11%; viability, T/C (second compound 3.16 µM, first compound 0.00316 µM): 12.3%; viability, T/C (second compound 3.16 µM, first compound 0.01 µM): 9.35%; viability, T/C [16]: 2.41%; viability, T/C (second compound 10 µM, first compound 0.00316 µM): 6.56%; viability, T/C (second compound 10 µM, first compound 0.01 µM): 5.87%; viability, T/C [17]: 5.36%; viability, T/C [18]: 4.04%; viability, T/C [19]: 2.89%; viability, T/C [20]: 1.6%
2 | Cc1nc(NC(=O)N2CCCC2C(N)=O)sc1-c1ccnc(C(C)(C)C(F)(F)F)c1 (stereo not given) + CC(C)NCC(C(=O)N1CCN(c2ncnc3c2C(C)CC3O)CC1)c1ccc(Cl)cc1 | 120 nM | < 31.6 nM | < 31.6 nM | < 31.6 nM | < 31.6 nM | 67.1% | 52.7% | 35% | 19.4% | 33.5% | 30.2% | 22.5% | 11.6% | 16.4% | 15.6% | 13.8% | 9.61% | 14.5% | 11.2% | 7.81% | viability, T/C (second compound 0.1 µM, first compound 3.16 µM): 9%; viability, T/C (second compound 0.1 µM, first compound 10 µM): 5%; viability, T/C (second compound 0.316 µM, first compound 3.16 µM): 8.53%; viability, T/C (second compound 0.316 µM, first compound 10 µM): 4.14%; viability, T/C (second compound 1 µM, first compound 3.16 µM): 7.02%; viability, T/C (second compound 1 µM, first compound 10 µM): 4.07%; viability, T/C [16]: 6.61%; viability, T/C (second compound 3.16 µM, first compound 3.16 µM): 6.22%; viability, T/C (second compound 3.16 µM, first compound 10 µM): 4.46%; viability, T/C [17]: 7.89%; viability, T/C [18]: 8.14%; viability, T/C [19]: 5.69%; viability, T/C [20]: 5.04%; viability, T/C (second compound 10 µM, first compound 3.16 µM): 3.63%; viability, T/C (second compound 10 µM, first compound 10 µM): 2.25%
